Measured values from paper PMC6489322, “Biochemical characterization of recombinant Avihepatovirus 3C protease and its localization” (Virology Journal, 2019).

Molecular target: T1, DHAV 3C protease (avihepatovirus A1, UniProt Q076B4)
T1 construct: mature 3C cut from the genome polyprotein (aa 1614-1794, 181 aa); N-terminal His6 tag, pET32a (NdeI/HindIII), E. coli BL21, Ni-NTA; tag removal not described
Test: FRET peptide cleavage assay, inhibition
Format: biochemical
Conditions: 5 uM protease, 20 uM Dabcyl-ASFMNQSKVRRFE-Edans; inhibitor at 50 and 100 uM; cleavage buffer (assay optimum pH 7.0, 150 mM NaCl, 37 °C)

CCOC(=O)/C=C/[C@H](C[C@@H]1CCNC1=O)NC(=O)[C@@H](CC(=O)[C@@H](NC(=O)c1cc(C)on1)C(C)C)Cc1ccc(F)cc1 [AG7088, Rupintrivir]
FRET peptide cleavage assay, inhibition: The results showed that AG7088 exhibited inhibitory activity against the DHAV 3C protease
